Reference: PMC5578202, “Bioaccessibility, Intestinal Permeability and Plasma Stability of Isorhamnetin Glycosides from Opuntia ficus-indica (L.)” (International Journal of Molecular Sciences, 2017)
Read-outs that look alike come from different tables or passages of the source.

How the values were obtained:
[1] = cited from earlier work
[2] = Simulated in vitro digestion (oral, gastric, intestinal): recovery percentage / bioaccessibility; format: in vitro ADME; settings: human-simulated digestion
Procedure: The simulated in vitro digestion model was performed based on the methodology described by Garrett et al., with some modifications. Isorhamnetin aglycones and O. ficus-indica extract were subjected to digestion in triplicate. A three-step procedure was applied to simulate the digestive processes in the mouth, stomach, and small intestine. The digestion started with an amount of extract that contained an equivalent of 10 mg of isorhamnetin (60 mg) or 10 mg of isorhamnetin standard. An α-amylase solution (75 Units/mL) was added to 20 mL of solution, adjusted to pH 6.9, which was incubated for 10 min. This mixture was shaken using a VWR® Incubating orbital shaker (Thorofare, NJ, USA) for 10 min at 37 °C and 55 rpm. The gastric digestion started by adjusting the pH to 2 with 1 M HCl and, after, 2 mL of porcine-pepsin solution was added (40 mg/mL in 0.1 M HCl). This mixture was shaken in an incubator for 1 h at 37 °C and 95 rpm. For the intestinal digestion, the solution was previously adjusted to pH 5.3 with 0.9 M NaHCO3 and then a mixture of bile salts and pancreatin (6 mL containing porcine-pancreatin (2 mg/mL), and bile salts (12 mg/mL) dissolved in a NaHCO3 solution (100 mM), were added. Concentrations of pancreatin and bile extract in the final solution were 0.4 and 2.4 mg/mL, respectively. Then, the solution was adjusted to pH 7.5 by adding 1N NaOH. The mixture was shaken in an incubator for 2 h at 37 °C and 95 rpm. The enzyme reaction was inactivated by placing the sample in a hot water bath (80 °C for 2 min). At the end of the process, the digested samples were centrifuged at 13,000× g and 4 °C for 5 min (Thermo Scientific SL 16R centrifuge, Osterode, Germany). The resulting supernatant, which was considered the bioaccessible or absorbable fraction, was recovered. The recovery percentage of each compound was calculated based on the concentration in the supernatant recovered after each phase (oral, gastric, and intestinal) of the in vitro digestion. This fraction was also tested for permeability and potential bioavailability of the isorhamnetin glycosides present in the O. ficus-indica extract.

[3] = tested on: Caco-2/HT-29 cell monolayer; assay: Permeability across Caco-2/HT-29 (75:25) co-culture monolayer; format: in vitro ADME, human; settings: for Efflux ratio [Papp(BL-AP)/Papp(AP-BL)]: Caco-2/HT-29 (Figure 2b); for Apparent permeability coefficient apical to basolateral, Papp(AP-BL): Caco-2/HT-29 co-culture, digested samples
Procedure: (§1) Caco-2 and HT-29 cell lines were obtained from ATCC (American Tissue Culture Collection, Rockville, MD, USA). Cells were cultured in DMEM-F12 supplemented with 10% fetal bovine serum and were maintained at 37 °C in 5% CO2. Before the start of the permeability experiments, the cytotoxicity of isorhamnetin and the O. ficus-indica extract on Caco-2/HT-29 (75:25) co-culture were tested to ensure that the viability of the cells was over 90%. Permeability experiments were performed according to Xie et al. and Hubatsch et al. with slight modifications. Caco-2 and HT-29 co-culture cell monolayer (75:25) were seeded on 6-well transwell plates, with inserts having a polycarbonate membrane with a surface area of 4.71 cm^2 and a pore diameter of 0.4 µm (Costar, Corning, NY, USA) at a final seeding density of 1 × 10^6 cells/insert, cultured for 21 days. Caco-2 cell monolayers were washed with warm HBSS medium (pH 7.4) and then digested samples of isorhamnetin aglycone or O. ficus-indica extract were added to the apical side (AP: 1.5 mL), whereas the receiving compartment or basolateral side (BL: 2.5 mL) contained the corresponding volume of HBSS. Plates with transwell inserts were incubated at 37 °C in an orbital shaking incubator at 100 rpm. Aliquots of 1 mL were withdrawn from both compartments at 15, 30, 60 and 120 min, and fresh HBSS was added to replace the withdrawn volume. Samples were immediately frozen and preserved at −20 °C until HPLC analysis. All experiments were performed in triplicate.
(§2) The apparent permeability coefficient (Papp) was calculated from the cumulative amount permeated versus the time profile according the following Equation (1): Papp = (dQ/dt) × (V/A × C0) (1) where dQ/dt is the change in drug concentration in the receiver solution (µM/s), V represents the volume of the solution in the receiving compartment (mL), A denotes the membrane surface area (cm^2), and C0 is the initial concentration in the donor compartment (µM).
(§3) The integrity of the monolayers was measured at the beginning and the end of the experiment using the paracellular permeability of lucifer yellow (LY). Fluorescence was measured at 530 nm (emission) and 485 nm (excitation) using a microplate reader (Synergy HT, BioTek, Winooski, VM). The data from membranes displaying an LY apparent permeability coefficient (Papp) > 1 × 10^−6 cm/s were excluded.

[4] = tested on: Caco-2 cell monolayer; settings: cited from earlier work
[5] = Permeability across Caco-2/HT-29 (75:25) co-culture monolayer; format: in vitro ADME, human; settings: human, pH 7.4
Procedure: as §1, §2, §3

[6] = cited from earlier work; for Recovery after intestinal digestion: ref Ydjedd et al. [40]
[7] = Plasma stability / pharmacokinetics after intravenous dose in rats; design: species or system rat; settings: male, Wistar, in vivo, intravenous dose 2 mg/kg
Procedure: Twenty-seven male Wistar rats, weighing approximately 200 g (eight weeks old), were divided in nine groups of three animals each. One group was taken as a control and received only a saline solution through the caudal vein. Four groups received an intravenous dose (2 mg/kg) of the O. ficus-indica extract and the last four groups received the commercial isorhamnetin standard. The dosage was determined based on results previously reported by Antunes-Ricardo et al.. Animals were anaesthetized with ketamine/xilazyne (60 mg/kg; 10 mg/kg), and then blood was extracted by intracardiac puncture at different sampling times (0.25, 0.5, 1 and 1.5 h). This procedure was randomized to avoid any bias results. After blood extraction, the animals were sacrificed by cervical dislocation. Plasma was obtained as previously described (see Section 4.6) and the samples were stored at −20 °C until analysis.
Plasma samples were spiked with 25 µL of quercetin (30 µg/mL) as an internal standard. Then, plasma samples were submitted to an acid hydrolysis with 2 M HCl for 180 min at 80 °C. Then, samples were extracted with 100% methanol (10:1, v/v), centrifuged, and the resulting supernatants were quantified by HPLC-PDA. The area under the concentration-time curve (AUC0−1.5 h) was calculated based on the linear trapezoidal method. The elimination half-life (t1/2) was determined by linear regression of the terminal portion of the plasma concentration-time data. The plasma clearance (CLplasma) was calculated by multiplying the volume of distribution, Vd, by the elimination constant, Kel, according to the following Equation (3): CLplasma: Vd × Kel (3)

[8] = design: method as in Duan et al. [24]; settings: ref Duan et al. [24]; cited from earlier work
[9] = intestinal phase, pH 7.5, pancreatin and bile salts
[10] = Caco-2 monolayer, ref Xie et al. [47]

O=c1c(O)c(-c2ccc(O)c(O)c2)oc2cc(O)cc(O)c12 [quercetin as aglycone, quercetin]
AUC0–24 h ([1]; in humans, ref [54]): 2500 ± 2200 ng·h/mL | AUC0–1440 min of quercetin ([1]; ref Petersen et al. [56]): 62 ± 12 µmol·min/L

isorhamnetin-3-O-glucosyl-rhamnoside [IGR]
Recovery percentage after gastric digestion phase ([2]; gastric phase, pH 2, pepsin): 96.8 ± 0.9 ^A,a % | Recovery percentage after intestinal digestion phase [2, 9]: 81.0 ± 4.6 ^A,b % | Recovery percentage after oral digestion phase ([2]; oral phase, pH 6.9, α-amylase): 99.6 ± 3.8 ^A,a % | Efflux ratio [Papp(BL-AP)/Papp(AP-BL)] [3]: 3.1 | Apparent permeability coefficient apical to basolateral, Papp(AP-BL) [3]: 1.72 ± 0.01 × 10^−6 cm/s | Papp(AP-BL) ([4]; Caco-2 monolayers, ref Tian et al. [23]): 2.9e-07 cm/s

O=c1cc(-c2ccccc2)oc2cc(O)cc(O)c12 [chrysin]
Permeability basolateral to apical relative to apical to basolateral ([4]; ref [36]): two-fold higher

isorhamnetin-3-O-glucosyl-rhamnosyl-pentoside [IGRP]
Recovery percentage after gastric digestion phase ([2]; gastric phase, pH 2, pepsin): 96.2 ± 0.4 ^A,a % | Recovery percentage after intestinal digestion phase [2, 9]: 80.3 ± 1.9 ^A,b % | Recovery percentage after oral digestion phase ([2]; oral phase, pH 6.9, α-amylase): 93.8 ± 5.2 ^A,a % | Efflux ratio [Papp(BL-AP)/Papp(AP-BL)] [3]: 5.2 | Apparent permeability coefficient apical to basolateral, Papp(AP-BL) [3]: 1.28 ± 0.02 × 10^−6 cm/s

COc1ccc([C@@H]2CC(=O)c3c(O)cc(O[C@@H]4O[C@H](CO[C@@H]5O[C@@H](C)[C@H](O)[C@@H](O)[C@H]5O)[C@@H](O)[C@H](O)[C@H]4O)cc3O2)cc1O [hesperetin-7-O-rutinoside]
tmax ([1]; after oral consumption, ref [32]): 288 ± 132 min

COc1cc(-c2oc3cc(O)cc(O)c3c(=O)c2O)ccc1O [I, isorhamnetin]
recovery at 2 h, 0.33 mg/mL ([2]; intestinal phase, pH 7.5, pancreatin and bile salts, read-out: Recovery percentage after intestinal digestion phase): 74.3 ± 7.4% | recovery at 10 min, 0.5 mg/mL ([2]; oral phase, pH 6.9, α-amylase, read-out: Recovery percentage after oral digestion phase): 35 ± 2.4% | recovery at 1 h ([2]; simulated in vitro digestion, gastric phase, pH 2, pepsin, read-out: Recovery percentage after gastric digestion phase): 49 ± 3.4% | efflux ratio at 120 min ([5]; Caco-2/HT-29 (Figure 2b), read-out: Efflux ratio [Papp(BL-AP)/Papp(AP-BL)]): 0.6 | Papp A→B at 120 min ([5]; Caco-2/HT-29 co-culture, digested samples, read-out: Apparent permeability coefficient apical to basolateral, Papp(AP-BL)): 4.74 ± 0.02 ×10⁻⁶ cm/s | Papp basolateral to apical relative to Papp apical to basolateral ([3]; Caco-2/HT-29): two-fold lower | Bioaccessibility after a simulated digestion ([6]; from almond skins, ref [19]): 25.1 ± 7.0% | AUC(0-t) ([7]; rat plasma, isorhamnetin after acid hydrolysis, read-out: AUC0–1.5 h of isorhamnetin): 104 ± 4.89 µM·h | half-life ([7]; rat plasma, read-out: Elimination half-life t1/2 (converted)): 38.4 min | clearance ([7]; rat, read-out: CL plasma): 7.44 ± 1.21 mL/min | pKa [8]: 6.3 | Papp(AP-BL) ([4]; Caco-2 cells, ref Lan et al. [35]): 2.28 ± 0.09 × 10^−6 cm/s | Papp ([4]; Caco-2 monolayer, tested alone, ref Xie et al. [47]): 1.61 ×10⁻⁶ cm/s | Increase of Papp in combination with kaempferol [4, 10]: 1.33 fold | Increase of Papp in combination with quercetin [4, 10]: 2.38 fold

COc1ccc([C@@H]2CC(=O)c3c(O)cc(O[C@@H]4O[C@H](CO)[C@@H](O)[C@H](O)[C@H]4O)cc3O2)cc1O [hesperetin-7-O-glucoside]
Bioavailability higher than hesperetin-7-O-rutinoside ([1]; human, in vivo): 76% | tmax ([1]; in vivo, po): 30 ± 6 min | Improvement of bioavailability on removing the rhamnose moiety from hesperetin-7-glucosyl-rhamnoside ([1]; in vivo): two-fold

isorhamnetin-3-O-glucosyl-pentoside [IGP]
Recovery percentage after gastric digestion phase ([2]; gastric phase, pH 2, pepsin): 93.5 ± 3.3 ^A,a % | Recovery percentage after intestinal digestion phase [2, 9]: 73.3 ± 3.5 ^A,b % | Recovery percentage after oral digestion phase ([2]; oral phase, pH 6.9, α-amylase): 96.6 ± 4.7 ^A,a % | Efflux ratio [Papp(BL-AP)/Papp(AP-BL)] [3]: 3.0

C[C@@H]1O[C@@H](Oc2c(-c3ccc(O)c(O)c3)oc3cc(O)cc(O)c3c2=O)[C@H](O)[C@H](O)[C@H]1O [quercetin rhamnoside]
Recovery after intestinal digestion [6]: 47.9%

C[C@@H]1O[C@@H](Oc2c(-c3cc(O)c(O)c(O)c3)oc3cc(O)cc(O)c3c2=O)[C@H](O)[C@H](O)[C@H]1O [myricetin-rhamnoside]
Recovery after a simulated digestion process ([6]; ref Ortega et al. [39]): 51.5% | Recovery after intestinal digestion [6]: 40.2%

isorhamnetin-3-O-glucosyl-rhamnosyl-rhamnoside [IGRR]
Recovery percentage after gastric digestion phase ([2]; gastric phase, pH 2, pepsin): 96.0 ± 4.4 ^A,a % | Recovery percentage after intestinal digestion phase [2, 9]: 79.5 ± 1.8 ^A,b % | Recovery percentage after oral digestion phase ([2]; oral phase, pH 6.9, α-amylase): 99.1 ± 3.8 ^A,a % | Efflux ratio [Papp(BL-AP)/Papp(AP-BL)] [3]: 5.9 | Apparent permeability coefficient apical to basolateral, Papp(AP-BL) [3]: 1.03 ± 0.04 × 10^−6 cm/s

O=c1c(O[C@@H]2O[C@H](CO)[C@H](O)[C@H](O)[C@H]2O)c(-c2ccc(O)c(O)c2)oc2cc(O)cc(O)c12 [Quercetin-3-galactoside]
Concentration in plasma ([1]; after ingestion of cranberry juice, ref Wang et al. [55]): 10 to 15 ng/mL | Efflux ratio compared with quercetin-3-glucoside ([4]; ref Duan et al. [24]): higher efflux ratio

quercetin-3-glucosyl-rhamnoside
Decrease in levels after intestinal digestion phase compared with gastric step ([6]; ref Tenore et al. [37]): 18.6%
